Measured values reported in patent US6964949B2, “Pharmaceutical compositions for promoting the growth of gram-positive bacilli and increasing the acidity in the vagina and the use thereof” (Shanghai Jiao Da Onlly Co., Ltd., priority 2000, dated 2005).

What was measured:
Assay type in all cases: cell-based
[1] = test system: vaginal secretion specimen of a patient suffering from typical bacterial vaginosis; assay: Experiment Example 4: pH of culture samples (production of acids); conditions: 17.0% saccharide, 1.0% yeast extract, 1.6% xanthan gum, pH 6.2, candle jar, 37° C.
Description: • (1)The preparation of the compositions: Maltose and sucrose were used respectively to prepare the following composition in the methods mentioned above: • A. 17.0% maltose, 1.0% yeast extract, 1.6% xanthan gum, pH adjusted to 6.2; • B. 17.0% sucrose, 1.0% yeast extract, 1.6% xanthan gum, pH adjusted to 6.2; • (2) The preparation of the test tubes: Compositions prepared above were filled into the test tubes, with each tube containing 5 ml, sterilized, and kept until use for experiment. • (3) Specimen suspension: Vaginal secretion was taken from one of the patients suffering from typical bacterial vaginosis with a cotton swab, then the swab was washed in 2 ml sterilized Trypcase-soy Broth immediately, and thus the specimen suspension was ready. […] Then the tubes were placed in a candle jar and cultivated at 37° C. After 24 hours and 48 hours' culture, culture samples were taken respectively from each of the tubes, then the Gram smears of the samples were observed and the pH values of culture samples were tested.

[2] = test system: vaginal secretion specimen of a patient suffering from typical bacterial vaginosis; assay: Experiment Example 5: pH of culture samples (production of acids); conditions: 10.0% maltose, 1.0% yeast extract, 1.6% xanthan gum
Source text: • (1)The preparation of the compositions: Maltose was used to prepare the following compositions according to the method mentioned above: • A. 10.0% maltose, 1.0% yeast extract, 1.6% xanthan gum, pH adjusted to 4.4; • B. 10.0% maltose, 1.0% yeast extract, 1.6% xanthan gum, pH adjusted to 4.8; • C. 10.0% maltose, 1.0% yeast extract, 1.6% xanthan gum, pH adjusted to 5.1; • D. 10.0% maltose, 1.0% yeast extract, 1.6% xanthan gum, pH adjusted to 5.4; • E. 10.0% maltose, 1.0% yeast extract, 1.6% xanthan gum, pH adjusted to 5.8; • F. 10.0% maltose, 1.0% yeast extract, 1.6% xanthan gum, pH adjusted to 6.4; • G. 10.0% maltose, 1.0% yeast extract, 1.6% xanthan gum, pH adjusted to 6.8; • H. 10.0% maltose, 1.0% yeast extract, 1.6% xanthan gum, pH adjusted to 7.2; • (2)The preparation of the test tubes: Compositions prepared above were filled into the test tubes, with each tube containing 5 ml, sterilized, and kept until use for experiments. • (3)Specimen suspension: Vaginal secretion was taken from one of the patients suffering from typical bacterial vaginosis with a cotton swab, then the swab was washed in 2 ml sterilized Trypcase-soy Broth immediately, and thus the specimen suspension was ready. […] Then the tubes were placed in a candle jar and cultivated at 37° C. After 24 hours and 48 hours' culture, culture samples were taken respectively from each of the tubes, then the Gram smears of the samples were observed and the pH values of culture samples were tested.

Gram-positive bacilli = assay: Experiment Example 2: comparison of saccharides, specimen culture, Gram smear; conditions: 10.0% saccharide, 1.0% yeast extract, 1.6% xanthan gum (dextrin 0.5%, starch none), pH 6.2, candle jar, 37° C.
Gram-negative cocci = assay: as above; conditions: 10.0% saccharide, 1.0% yeast extract, 1.6% xanthan gum (dextrin 0.5%, starch none), pH 6.2, candle jar, 37° C.

SMILES: OC[C@H]1O[C@H](O[C@H]2[C@H](O)[C@@H](O)[C@H](O)O[C@@H]2CO)[C@H](O)[C@@H](O)[C@@H]1O [Maltose, maltose]
- pH, 24 hours culture [1]: 5.4
- pH, 48 hours culture [1]: 5.1
- pH, 24 hours culture ([2]; pH of the composition 4.4): 4.4
- pH, 48 hours culture ([2]; pH of the composition 4.4): 4.4
- pH, 24 hours culture ([2]; pH of the composition 4.8): 4.8
- pH, 48 hours culture ([2]; pH of the composition 4.8): 4.4-4.8
- pH, 24 hours culture ([2]; pH of the composition 5.1): 4.6
- pH, 48 hours culture ([2]; pH of the composition 5.1): 4.4-4.6
- pH, 24 hours culture ([2]; pH of the composition 5.4): 5.4
- pH, 48 hours culture ([2]; pH of the composition 5.4): 4.1-4.4
- pH, 24 hours culture ([2]; pH of the composition 5.8): 4.8
- pH, 48 hours culture ([2]; pH of the composition 5.8): 4.1
- pH, 24 hours culture ([2]; pH of the composition 6.4): 4.4
- pH, 48 hours culture ([2]; pH of the composition 6.4): 4.1
- pH, 24 hours culture ([2]; pH of the composition 6.8): 5.4
- pH, 48 hours culture ([2]; pH of the composition 6.8): 4.4
- pH, 24 hours culture ([2]; pH of the composition 7.2): 5.4
- pH, 48 hours culture ([2]; pH of the composition 7.2): 4.1
- Bacteria G + b (Gram-positive bacilli), 24 hours-culture (Gram-positive bacilli; 24 hours): G + b, ++ (About 10-99 bacteria per field of vision under oil-immersion lens)
- Bacteria G + b (Gram-positive bacilli), 48 hours-culture (Gram-positive bacilli): G + b, +++ (About 100 bacteria or more per field vision under oil-immersion lens, even uncountable)
- Bacteria G − c (Gram-negative cocci), 24 hours-culture (Gram-negative cocci): G − c, − (No or less than one bacterium per field of version under oil-immersion lens)
- Bacteria G − c (Gram-negative cocci), 48 hours-culture (Gram-negative cocci): G − c, − (No or less than one bacterium per field of version under oil-immersion lens)

SMILES: OC[C@H]1O[C@@](CO)(O[C@H]2O[C@H](CO)[C@@H](O)[C@H](O)[C@H]2O)[C@@H](O)[C@@H]1O [Sucrose, sucrose]
- pH, 24 hours culture [1]: 6.2
- pH, 48 hours culture [1]: 5.4
- Bacteria G + b (Gram-positive bacilli), 48 hours-culture (Gram-positive bacilli): G + b, +++ (About 100 bacteria or more per field vision under oil-immersion lens, even uncountable)
- Bacteria G − c (Gram-negative cocci), 24 hours-culture (Gram-negative cocci): G − c, − (No or less than one bacterium per field of version under oil-immersion lens)
- Bacteria G − c (Gram-negative cocci), 48 hours-culture (Gram-negative cocci): G − c, − (No or less than one bacterium per field of version under oil-immersion lens)
